From PubChem BioAssay (NCI)
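In this assay, cells in 96-well plates receive the compound at five concentrations for 48 hours. Endpoints are linearly interpolated between the surrounding concentrations. TGI denotes the concentration required for complete inhibition of growth.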

Columns and labels:
Test in all cases: NCI-60 cell line screen, 48 h
786-0 renal = test system: 786-0 renal
A498 renal = test system: A498 renal
A549 NSCLC = test system: A549 NSCLC
ACHN renal = test system: ACHN renal
BT-549 breast = test system: BT-549 breast
CAKI-1 renal = test system: CAKI-1 renal
CCRF-CEM leukemia = test system: CCRF-CEM leukemia
COLO 205 colon = test system: COLO 205 colon
DU-145 prostate = test system: DU-145 prostate
EKVX NSCLC = test system: EKVX NSCLC
HCC-2998 colon = test system: HCC-2998 colon
HCT-116 colon = test system: HCT-116 colon
HCT-15 colon = test system: HCT-15 colon
HL-60(TB) leukemia = test system: HL-60(TB) leukemia
HOP-62 NSCLC = test system: HOP-62 NSCLC
HS 578T breast = test system: HS 578T breast
HT29 colon = test system: HT29 colon
IGROV1 ovarian = test system: IGROV1 ovarian
K-562 leukemia = test system: K-562 leukemia
KM12 colon = test system: KM12 colon
LOX IMVI melanoma = test system: LOX IMVI melanoma
M14 melanoma = test system: M14 melanoma
MCF7 breast = test system: MCF7 breast
MDA-MB-435 = test system: MDA-MB-435
MDA-N = test system: MDA-N
MOLT-4 leukemia = test system: MOLT-4 leukemia
NCI-H23 lung = test system: NCI-H23 lung
NCI-H460 lung = test system: NCI-H460 lung
NCI-H522 lung = test system: NCI-H522 lung
NCI/ADR-RES ovarian = test system: NCI/ADR-RES ovarian
OVCAR-3 ovarian = test system: OVCAR-3 ovarian
OVCAR-4 ovarian = test system: OVCAR-4 ovarian
OVCAR-5 ovarian = test system: OVCAR-5 ovarian
OVCAR-8 ovarian = test system: OVCAR-8 ovarian
PC-3 prostate = test system: PC-3 prostate
RPMI-8226 leukemia = test system: RPMI-8226 leukemia
SF-268 CNS = test system: SF-268 CNS
SF-295 CNS = test system: SF-295 CNS
SF-539 CNS = test system: SF-539 CNS
SK-MEL-2 melanoma = test system: SK-MEL-2 melanoma
SK-MEL-28 melanoma = test system: SK-MEL-28 melanoma
SK-MEL-5 melanoma = test system: SK-MEL-5 melanoma
SK-OV-3 ovarian = test system: SK-OV-3 ovarian
SNB-19 CNS = test system: SNB-19 CNS
SR leukemia = test system: SR leukemia
SW-620 colon = test system: SW-620 colon
T-47D breast = test system: T-47D breast
U251 CNS = test system: U251 CNS
UACC-257 melanoma = test system: UACC-257 melanoma
UACC-62 melanoma = test system: UACC-62 melanoma
UO-31 renal = test system: UO-31 renal
HOP-92 NSCLC = test system: HOP-92 NSCLC
MALME-3M melanoma = test system: MALME-3M melanoma
NCI-H226 lung = test system: NCI-H226 lung
SNB-75 CNS = test system: SNB-75 CNS
TK-10 renal = test system: TK-10 renal

`CCN(CC)Cc1ccc(C(=S)Nc2ccc(Cl)cc2)s1` showed a TGI (786-0 renal) of 26.4 µM, a TGI (A498 renal) of 25.8 µM and a TGI (A549 NSCLC) of 25.4 µM. The TGI (ACHN renal) was 28.3 µM, the TGI (BT-549 breast) was 19.7 µM and the TGI (CAKI-1 renal) was 26.2 µM. It also gave a TGI (CCRF-CEM leukemia) of 34.1 µM, a TGI (COLO 205 colon) of 5.2 µM and a TGI (DU-145 prostate) of 29.7 µM. For the same compound, the TGI (EKVX NSCLC) was 19.4 µM, the TGI (HCC-2998 colon) was 26 µM and the TGI (HCT-116 colon) was 22.9 µM. It also gave a TGI (HCT-15 colon) of 23 µM, a TGI (HL-60(TB) leukemia) of 10.5 µM and a TGI (HOP-62 NSCLC) of 32.1 µM. It also gave a TGI (HS 578T breast) of 32.5 µM, a TGI (HT29 colon) of 12 µM and a TGI (IGROV1 ovarian) of 24.1 µM. It also gave a TGI (K-562 leukemia) of 18.9 µM, a TGI (KM12 colon) of 26.6 µM and a TGI (LOX IMVI melanoma) of 16.2 µM. The TGI (M14 melanoma) was 14.2 µM, the TGI (MCF7 breast) was 25.5 µM and the TGI (MDA-MB-435) was 22.7 µM. It also gave a TGI (MDA-N) of 23.6 µM, a TGI (MOLT-4 leukemia) of 34.4 µM and a TGI (NCI-H23 lung) of 9.34 µM. For the same compound, the TGI (NCI-H460 lung) was 27.9 µM, the TGI (NCI-H522 lung) was 25 µM and the TGI (NCI/ADR-RES ovarian) was 25 µM. The TGI (OVCAR-3 ovarian) was 37.7 µM, the TGI (OVCAR-4 ovarian) was 34.6 µM and the TGI (OVCAR-5 ovarian) was 23.7 µM. The TGI (OVCAR-8 ovarian) was 18.2 µM, the TGI (PC-3 prostate) was 28.6 µM and the TGI (RPMI-8226 leukemia) was 39.6 µM. The TGI (SF-268 CNS) was 30 µM, the TGI (SF-295 CNS) was 25.2 µM and the TGI (SF-539 CNS) was 31.6 µM. The TGI (SK-MEL-2 melanoma) was 32.1 µM, the TGI (SK-MEL-28 melanoma) was 20.8 µM and the TGI (SK-MEL-5 melanoma) was 16.9 µM. For the same compound, the TGI (SK-OV-3 ovarian) was 29.7 µM, the TGI (SNB-19 CNS) was 31.6 µM and the TGI (SR leukemia) was 24.7 µM. It also gave a TGI (SW-620 colon) of 36.8 µM, a TGI (T-47D breast) of 34.2 µM and a TGI (U251 CNS) of 26.2 µM. It also gave a TGI (UACC-257 melanoma) of 18.1 µM, a TGI (UACC-62 melanoma) of 23 µM and a TGI (UO-31 renal) of 23.5 µM.
For `CC1(C)/C(=N\NC(N)=O)C2CCC1C2` (centres undefined), the TGI (786-0 renal) was > 100 µM, the TGI (A549 NSCLC) was > 100 µM and the TGI (ACHN renal) was > 100 µM. For the same compound, the TGI (BT-549 breast) was > 100 µM, the TGI (CAKI-1 renal) was > 100 µM and the TGI (CCRF-CEM leukemia) was > 100 µM. For the same compound, the TGI (COLO 205 colon) was > 100 µM, the TGI (DU-145 prostate) was > 100 µM and the TGI (EKVX NSCLC) was > 100 µM. The TGI (HCT-116 colon) was > 100 µM, the TGI (HCT-15 colon) was > 100 µM and the TGI (HL-60(TB) leukemia) was > 100 µM. The TGI (HOP-62 NSCLC) was > 100 µM, the TGI (HOP-92 NSCLC) was > 100 µM and the TGI (HS 578T breast) was > 100 µM. The TGI (HT29 colon) was > 100 µM, the TGI (IGROV1 ovarian) was > 100 µM and the TGI (K-562 leukemia) was > 100 µM. The TGI (KM12 colon) was > 100 µM, the TGI (LOX IMVI melanoma) was > 100 µM and the TGI (M14 melanoma) was > 100 µM. The TGI (MALME-3M melanoma) was > 100 µM, the TGI (MCF7 breast) was > 100 µM and the TGI (MDA-MB-435) was > 100 µM. The TGI (MDA-N) was > 100 µM, the TGI (MOLT-4 leukemia) was > 100 µM and the TGI (NCI-H226 lung) was > 100 µM. For the same compound, the TGI (NCI-H23 lung) was > 100 µM, the TGI (NCI-H460 lung) was > 100 µM and the TGI (NCI-H522 lung) was > 100 µM. The TGI (NCI/ADR-RES ovarian) was > 100 µM, the TGI (OVCAR-3 ovarian) was > 100 µM and the TGI (OVCAR-4 ovarian) was > 100 µM. The TGI (OVCAR-5 ovarian) was > 100 µM, the TGI (OVCAR-8 ovarian) was > 100 µM and the TGI (PC-3 prostate) was > 100 µM. For the same compound, the TGI (RPMI-8226 leukemia) was > 100 µM, the TGI (SF-268 CNS) was > 100 µM and the TGI (SF-295 CNS) was > 100 µM. For the same compound, the TGI (SK-MEL-2 melanoma) was > 100 µM, the TGI (SK-MEL-28 melanoma) was > 100 µM and the TGI (SK-MEL-5 melanoma) was > 100 µM. For the same compound, the TGI (SK-OV-3 ovarian) was > 100 µM, the TGI (SNB-19 CNS) was > 100 µM and the TGI (SNB-75 CNS) was > 100 µM. The TGI (SR leukemia) was > 100 µM, the TGI (SW-620 colon) was > 100 µM and the TGI (T-47D breast) was > 100 µM. For the same compound, the TGI (TK-10 renal) was > 100 µM, the TGI (U251 CNS) was > 100 µM and the TGI (UACC-257 melanoma) was > 100 µM. For the same compound, the TGI (UACC-62 melanoma) was > 100 µM and the TGI (UO-31 renal) was > 100 µM.
